One assay relates to 143B cells. The assay is described as follows: Proliferation assay of wild-type 143B cells treated with respiration inhibitors. The format is cell-based. The following applies: for Proliferation of respiration-inhibited 143B cells with supplementation: rotenone, phenformin, antimycin, myxothiazol, azide or oligomycin plus the substance; for Proliferation of rotenone treated 143B cells: wide range of rotenone doses, 1 mM AKB or 20 mM aspartate, 4 days. The method, then: 143B, A172, H1299, HeLa, U87 and MEF cells were cultured in Dulbecco's Modified Eagle's Medium (DMEM) (Gibco) supplemented with 10% fetal bovine serum (FBS) and penicillin-streptomycin. FL5.12 cells were cultured in the same medium and supplemented with 5 μg/mL recombinant mouse IL-3 (R&D Systems). 143B cybrid cell lines (WT Cybrid and CytB) were cultured in DMEM with 10% FBS, penicillin-streptomycin, and 0.1 mg/mL uridine. All cells incubated at 37° C. with 5% CO2.
Adherent cell lines growing in log phase were trypsinized, counted, and plated onto 6 well dishes (Corning) in 2 mL complete DMEM and incubated overnight. Initial seeding density was 2E4 cells per well for 143B, A172, H1299, HeLa, 143B WT Cybrid, and MEFs and 3E4 cells for 143B CytB and U87 cells. The following day, one plate of cells was counted to determine the initial cell count at the time of treatment. Cells were washed 2 times with 2 mL phosphate buffered saline (PBS) and 4 mL media premixed with the indicated treatments was added. FL5.12 cells, a suspension cell line, were washed 2 times in PBS and added directly to media containing the indicated treatments and 5 μg/mL recombinant mouse IL-3. Proliferation rate assay media was DMEM without pyruvate containing 10% dialyzed FBS, penicillin-streptomycin, and 0.1 mg/mL uridine, unless otherwise noted. For these cell lines at these seeding densities it was determined that for 4 days the cells maintained logarithmic proliferation (data not shown), therefore final cell counts were measured 4 days after treatment. Cells were counted using Cellometer Auto T4 Plus Cell Counter (Nexcelom Bioscience). Proliferation rate was determined using the following formula: Proliferation Rate (Doublings per day)=(log2(Final cell count (day 5)/Initial cell count (day 1))/4 (days)

The test system of assay [1] is 143B CytB cells. The assay is described as follows: Purine nucleotide extraction and LC-MS analysis. The assay is classed as cell-based. The method, then: 143B CytB cells were seeded at 400,000 cells/well in 6 well dishes overnight. The following day, cells were washed 2 times in PBS and media was changed to proliferation assay media with or without the indicated treatments. After 15 hours polar metabolites were extracted from cells using 250 μL of ice cold 80% methanol. After scraping the cells, 250 μL of chloroform was added before vortexing for 10 min at 4° C. and centrifugation for 10 min at 4° C. at 16,000 g, 40 μL of the top, water-methanol, layer was transferred into a LC-MS tube and samples were analyzed. A Dionex UltiMate 3000 ultra-high performance liquid chromatography system connected to a Q Exactive benchtop Orbitrap mass spectrometer, equipped with an Ion Max source and a HESI II probe (Thermo Fisher Scientific) was used to quantify metabolites. Samples were separated by chromatography by injecting 10 μL of sample on a SeQuant ZIC-pHILIC Polymeric column (2.1×150 mm 5 μM, EMD Millipore). Flow rate was set to 150 μL/min, temperatures were set to 25° C. for column compartment and 4° C. for autosampler sample tray. Mobile Phase A consisted of 20 mM ammonium carbonate, 0.1% ammonium hydroxide. Mobile Phase B was 100% acetonitrile. The mobile phase gradient (% B) was set in the following protocol: 0-20 min.: linear gradient from 80% to 20% B; 20-20.5 min.: linear gradient from 20% to 80% B; 20.5-28 min.: hold at 80% B. Mobile phase was introduced into the ionization source set to the following parameters: sheath gas=40, auxiliary gas=15, sweep gas=1, spray voltage=−3.1 kV, capillary temperature=275° C., S-lens RF level=40, probe temperature=350° C. Metabolites were monitored using full scan in negative mode in the range of 285-700 m/z, with the resolution set at 140,000, the AGC target at 106, and the maximum injection time at 250 msec. Relative quantitation of metabolites was performed with XCalibur QuanBrowser 2.2 (Thermo Fisher Scientific) using a 5 ppm mass tolerance and referencing an in-house retention time library of chemical standards.

Another assay deals with Jurkat cells. Put plainly: Proliferation assay (Cell Titer Glo, 5 days) of wild type and knock-out Jurkat cells. The assay is classed as cell-based, human. Conditions: 5 days. The method, then: sgRNAs (oligonucleotide sequences are indicated above) were cloned into lentiCRISPR-v1 linearized with BsmBI by Gibson Assembly (NEB). sgRNA expressing vector along with lentiviral packaging vectors Delta-VPR and CMV VSVG were transfected into HEK-293T cells using the XTremeGene 9 transfection reagent (Roche). Similarly, for overexpression cell lines, cDNA vectors along with retroviral packaging vectors gag-pol and CMV VSV-G were transfected into HEK-293T cells. Media was changed 24 hours after transfection.
For orientation: In ATP-based viability assays light output follows the ATP content of the culture.

In assay [2] the test system is 143B CytB cells. The assay is described as follows: Amino acid and TCA cycle metabolite GC-MS analysis, 143B CytB cells. The format is cell-based. The following applies: AKB withdrawal. The method, then: 143B and 143B CytB cells were seeded at 400,000 cells/well in 6 well dishes overnight. The following day, cells were washed 2 times in PBS and media was changed to proliferation assay media with or without the indicated treatments. After 8 hours, polar metabolites were extracted using 80% methanol in water with 1 μg norvaline per sample. Soluble content was then dried under nitrogen gas. Polar samples were derivatized and measured as detailed in (Lewis). Relative metabolite abundances were determined by integrating ion peak area (Metran) and normalized to norvaline internal extraction standard.

Where [3] appears, read: cells without AKB supplementation compared to AKB replete cells.
Where [4] appears, read: pyruvate (1 mM), phenformin, piericidin, antimycin.

Entries after “also recorded” stand apart in the source; their conditions may differ.

Experimental findings from patent publication US10123985B2, “Therapeutic strategies for treating mitochondrial disorders” (Whitehead Institute for Biomedical Research, priority 2015, dated 2018) are described below.

Consider `N[C@@H](CC(=O)O)C(=O)O` [aspartate], for which, in the assay on 143B cells, the “Proliferation of respiration-inhibited 143B cells with supplementation” value is “Proliferation was restored in response to all ETC inhibitors” and the “Proliferation of rotenone treated 143B cells” value is reported as “restore proliferation in 143B cells over a wide range of rotenone doses”. Moreover, in the assay on 143B CytB cells [1] (143B CytB cells with aspartate), the AMP level result was “restores AMP pools”, the GMP level result was “not restored; also recorded: actually lower” and the IMP level entry is “relieves the accumulation of IMP”. Moreover, in the assay on Jurkat cells (aspartate (10 mM) in RPMI), the “Proliferation of phenformin-treated wild-type Jurkat cells with aspartate” value is “partially reversed the anti-proliferative effects of phenformin on wild-type cells”; the “Viability and proliferation of phenformin-treated GOT1-null Jurkat cells with aspartate” value was “rescues death of GOT1-null cells upon ETC inhibition; also recorded: prevented the phenformin induced death of GOT1-null cells and even enabled these cells to proliferate in the presence of the drug”.

Regarding `CCC(=O)C(=O)O` [AKB, α-ketobutyrate], in the assay on 143B cells, the “Proliferation of respiration-inhibited 143B cells with supplementation” value is on record as “rescued proliferation, with proliferation rates comparable to that observed in untreated cells” and the “Proliferation of rotenone treated 143B cells” value is “restore proliferation in 143B cells over a wide range of rotenone doses”. Also, in the assay on 143B CytB cells [1] (cells cultured without AKB compared to AKB replete cells), the IMP level result is reported as “increased levels”. Moreover, in the assay on 143B CytB cells [1] (setting [3]), the AMP level entry is given as “decreased” and the GMP level entry is “decreased”. Moreover, in the assay with 143B CytB cells [1] (upon AKB withdrawal), the AMP/IMP ratio result is “dramatically decrease” and the GMP/IMP ratio result is listed as “dramatically decrease”. In the assay on 143B CytB cells [2], the “Aspartate intracellular pool size” value is “also decreased”, the “Glutamate intracellular pool size” value was “only modestly decreased” and the “TCA cycle metabolite pool sizes” value is given as “drastically lowered”.

Consider `CC(=O)C(=O)O` [pyruvate], for which the “Proliferation of ETC inhibitor-treated MDH1-null Jurkat cells with pyruvate” value with Jurkat cells (pyruvate (1 mM)) was “did not stimulate aspartate synthesis or rescue proliferation; also recorded: does not rescue the proliferation of phenformin-treated MDH1 null cells”. In addition, the “Proliferation of ETC inhibitor-treated PC-null Jurkat cells with pyruvate” value in the assay on Jurkat cells (pyruvate (1 mM), phenformin (10 μM), antimycin (1 μM) or piericidin (0.5 μM)) is “still prevented the anti-proliferative effects of ETC inhibitors; also recorded: can rescue the death of PC-null cells induced by ETC inhibition”. In the assay with Jurkat cells (setting [4]), the “Proliferation of ETC inhibitor-treated wild type Jurkat cells with pyruvate” value is listed as “almost completely blocked the anti-proliferative effects of several ETC inhibitors”; the “Viability and proliferation of ETC inhibitor-treated GOT1-null Jurkat cells with pyruvate” value is “cannot rescue death of GOT1-null cells induced by ETC inhibitors; also recorded: no beneficial effect on the GOT1-null cells”.
